Earlier results on one compound are cited in patent US6441051B1, “Insect eradicator and method” (priority 2001, dated 2002).

The test system of this series is fire ants. As to conditions: d-limonene at about 5% concentration, after twenty-four hours.

As to `C=C(C)[C@H]1CC=C(C)CC1` [d-limonene], the kill rate entry is listed as “approximately 70%”.
